Laboratory results taken from ChEMBL document CHEMBL1926590, “Discovery of a novel class of non-ATP site DFG-out state p38 inhibitors utilizing computationally assisted virtual fragment-based drug design (vFBDD)” (Bioorg Med Chem Lett, 2011).

Tests used:
[1] = Apparent permeability across basolateral to apical side in human Caco2 cells by UPLC analysis; assay type: ADME, cell-based; details: Caco-2
[2] = Apparent permeability across apical to basolateral side in human Caco2 cells by UPLC analysis; assay type: ADME, cell-based; details: Caco-2
[3] = Half life in human hepatocytes; assay type: ADME, cell-based, Liver, Hepatocyte
[4] = Oral bioavailability in Sprague-Dawley rat at 4 mg/kg; assay type: ADME, organism-based; details: in vivo

Papp B→A [1]: 5.3 ×10⁻⁶ cm/s | Papp A→B [2]: 0.39 ×10⁻⁶ cm/s | half-life [3]: 340 min | bioavailability [4]: 33%
SMILES: CN(C)CCN1CCN(C(=O)c2cc(C(C)(C)C)sc2NC(=O)Nc2cccc(Cl)c2Cl)CCC1=O
